Test [1] in a line: HGIII-sPLA2 enzyme inhibition potency – biochemical, QFRET, IC50, dose response (AID 743457).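 Also: green fluorescence rise as the enzyme cleaves BODIPY PC-A2 in liposomes.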
The target of test [2] is T1, RNA-binding protein pos-1 (Caenorhabditis elegans, UniProt G5EF15).
T1 sequence (G5EF15 whole entry): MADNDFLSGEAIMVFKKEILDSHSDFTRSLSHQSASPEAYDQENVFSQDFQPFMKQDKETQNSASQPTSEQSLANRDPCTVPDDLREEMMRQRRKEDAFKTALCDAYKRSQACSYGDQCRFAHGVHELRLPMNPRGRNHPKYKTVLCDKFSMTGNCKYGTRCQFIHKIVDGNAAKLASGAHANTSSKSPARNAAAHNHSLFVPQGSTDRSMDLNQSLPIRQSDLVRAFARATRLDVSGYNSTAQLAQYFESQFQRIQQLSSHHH
Briefly: disruptors of C. elegans POS-1 RNA interaction – biochemical, fluorescence polarization, dose response (AID 1964).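 Also: purified POS-1 fused to maltose binding protein made in E. coli; potency of compounds blocking POS-1 binding to fluorescent RNA.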 In general terms: Fluorescence polarisation rises when a labelled molecule tumbles more slowly, as on binding a larger partner.

Test [3] is described as follows: cells. The test is classed as functional, cell-based.
Test [4] deals with T2, Zinc finger protein mex-5 (Caenorhabditis elegans, UniProt Q9XUB2).
T2 sequence (Q9XUB2 whole entry): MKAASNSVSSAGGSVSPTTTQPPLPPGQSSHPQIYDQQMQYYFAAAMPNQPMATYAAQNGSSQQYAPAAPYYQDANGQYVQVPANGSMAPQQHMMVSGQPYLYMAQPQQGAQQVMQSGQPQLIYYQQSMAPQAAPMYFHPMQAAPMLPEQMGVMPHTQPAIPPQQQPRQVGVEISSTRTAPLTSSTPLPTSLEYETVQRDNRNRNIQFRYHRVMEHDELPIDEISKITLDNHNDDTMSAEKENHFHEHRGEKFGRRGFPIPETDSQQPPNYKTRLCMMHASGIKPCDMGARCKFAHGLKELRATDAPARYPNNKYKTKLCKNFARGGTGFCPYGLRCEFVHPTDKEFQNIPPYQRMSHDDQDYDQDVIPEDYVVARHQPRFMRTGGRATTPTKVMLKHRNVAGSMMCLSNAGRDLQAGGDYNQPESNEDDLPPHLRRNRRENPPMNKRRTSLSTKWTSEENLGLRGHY
Briefly: potency of MEX-5 RNA-binding blockers – biochemical, C. elegans, fluorescence polarization, dose response (AID 1960).

The nature of test [5]: cells. It is filed as functional, cell-based. The source holds these as a separate data set.
For test [6], the target named is FAD-linked sulfhydryl oxidase ALR (Homo sapiens, UniProt P55789). Briefly: ALR-catalysed DTT oxidation blockers – biochemical, H2O2 detection, luminescence, cherry-pick, dose response (AID 493248).
Sequence of FAD-linked sulfhydryl oxidase ALR (P55789 whole entry): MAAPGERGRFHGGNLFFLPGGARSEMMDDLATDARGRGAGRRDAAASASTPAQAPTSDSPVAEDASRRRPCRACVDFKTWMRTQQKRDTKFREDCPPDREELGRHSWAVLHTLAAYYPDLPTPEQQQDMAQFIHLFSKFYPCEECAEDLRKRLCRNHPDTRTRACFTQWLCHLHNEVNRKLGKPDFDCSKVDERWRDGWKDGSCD
Test [7] in a line: reduction of Shn3 3'UTR-driven luciferase in osteoblasts – cell-based, Clone20 osteoblasts, firefly luciferase, cherry-picked, dose response (AID 624132).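 Also: firefly luciferase luminescence from reporter carrying the Shn3 3'UTR in osteoblasts.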 It is filed as functional.
The nature of test [8]: loss of viability in HepG2 cells – cell-based, CellTiter-Glo, cherry-picked, cytotoxicity control for Shn3 inhibitor project, dose response (AID 624134). The test is classed as functional. In general terms: Cellular ATP, detected with luciferase, serves as a proxy for viable cell number.
Test [9] in a line: non-specific 3'UTR reporter inhibition in Clone20-Shn3RL – cell-based, Renilla luciferase, cherry-picked, counter-screen for Shn3 inhibitor project, dose response (AID 624133). The test is classed as functional. (In general: Counterscreens check selectivity or assay interference.)
In another test the target is Albumin (Bos taurus, UniProt P02769). As to the kind of experiment: Counterscreen for inhibitors of T-cell receptor (TCR)-CD3 interaction: Fluorescence-based biochemical high throughput dose response assay to identify inhibitors of T-cell receptor (TCR)-CD3 interaction using a TAMRA-labeled BSA probe. The test is classed as functional.
Sequence of Albumin (P02769 whole entry): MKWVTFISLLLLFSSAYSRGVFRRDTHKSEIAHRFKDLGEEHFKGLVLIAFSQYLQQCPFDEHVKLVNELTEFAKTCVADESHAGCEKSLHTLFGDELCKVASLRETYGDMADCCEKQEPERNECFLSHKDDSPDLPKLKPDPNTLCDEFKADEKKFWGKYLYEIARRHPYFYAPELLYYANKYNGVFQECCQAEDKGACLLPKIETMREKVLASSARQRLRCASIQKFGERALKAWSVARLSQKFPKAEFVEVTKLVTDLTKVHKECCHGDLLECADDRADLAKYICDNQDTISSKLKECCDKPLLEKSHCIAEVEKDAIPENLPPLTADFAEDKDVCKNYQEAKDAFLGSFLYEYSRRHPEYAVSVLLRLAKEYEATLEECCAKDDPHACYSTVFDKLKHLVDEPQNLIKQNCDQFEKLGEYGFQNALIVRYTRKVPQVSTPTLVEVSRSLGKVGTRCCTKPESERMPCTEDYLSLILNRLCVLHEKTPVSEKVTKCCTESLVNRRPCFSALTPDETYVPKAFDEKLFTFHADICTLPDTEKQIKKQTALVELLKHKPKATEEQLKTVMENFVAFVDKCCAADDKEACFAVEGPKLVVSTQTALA
The target of the next test is T3, Caspase-6 (Homo sapiens, UniProt P55212).
T3 sequence (P55212 whole entry): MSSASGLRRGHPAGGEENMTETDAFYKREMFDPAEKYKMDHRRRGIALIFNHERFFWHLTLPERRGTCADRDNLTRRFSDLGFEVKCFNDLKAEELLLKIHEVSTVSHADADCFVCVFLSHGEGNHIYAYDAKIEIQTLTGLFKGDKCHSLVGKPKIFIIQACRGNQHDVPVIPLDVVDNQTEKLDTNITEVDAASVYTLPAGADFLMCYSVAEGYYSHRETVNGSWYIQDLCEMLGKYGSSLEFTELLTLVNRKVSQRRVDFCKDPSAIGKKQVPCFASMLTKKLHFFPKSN
Briefly: inhibition of CASP6 peptide cleavage – biochemical, VEID-R110 fluorescence, cherry-pick, dose response (AID 720632).

Test [10] deals with T4, Histone-lysine N-methyltransferase NSD2 (Homo sapiens, UniProt O96028).
T4 sequence (O96028 whole entry): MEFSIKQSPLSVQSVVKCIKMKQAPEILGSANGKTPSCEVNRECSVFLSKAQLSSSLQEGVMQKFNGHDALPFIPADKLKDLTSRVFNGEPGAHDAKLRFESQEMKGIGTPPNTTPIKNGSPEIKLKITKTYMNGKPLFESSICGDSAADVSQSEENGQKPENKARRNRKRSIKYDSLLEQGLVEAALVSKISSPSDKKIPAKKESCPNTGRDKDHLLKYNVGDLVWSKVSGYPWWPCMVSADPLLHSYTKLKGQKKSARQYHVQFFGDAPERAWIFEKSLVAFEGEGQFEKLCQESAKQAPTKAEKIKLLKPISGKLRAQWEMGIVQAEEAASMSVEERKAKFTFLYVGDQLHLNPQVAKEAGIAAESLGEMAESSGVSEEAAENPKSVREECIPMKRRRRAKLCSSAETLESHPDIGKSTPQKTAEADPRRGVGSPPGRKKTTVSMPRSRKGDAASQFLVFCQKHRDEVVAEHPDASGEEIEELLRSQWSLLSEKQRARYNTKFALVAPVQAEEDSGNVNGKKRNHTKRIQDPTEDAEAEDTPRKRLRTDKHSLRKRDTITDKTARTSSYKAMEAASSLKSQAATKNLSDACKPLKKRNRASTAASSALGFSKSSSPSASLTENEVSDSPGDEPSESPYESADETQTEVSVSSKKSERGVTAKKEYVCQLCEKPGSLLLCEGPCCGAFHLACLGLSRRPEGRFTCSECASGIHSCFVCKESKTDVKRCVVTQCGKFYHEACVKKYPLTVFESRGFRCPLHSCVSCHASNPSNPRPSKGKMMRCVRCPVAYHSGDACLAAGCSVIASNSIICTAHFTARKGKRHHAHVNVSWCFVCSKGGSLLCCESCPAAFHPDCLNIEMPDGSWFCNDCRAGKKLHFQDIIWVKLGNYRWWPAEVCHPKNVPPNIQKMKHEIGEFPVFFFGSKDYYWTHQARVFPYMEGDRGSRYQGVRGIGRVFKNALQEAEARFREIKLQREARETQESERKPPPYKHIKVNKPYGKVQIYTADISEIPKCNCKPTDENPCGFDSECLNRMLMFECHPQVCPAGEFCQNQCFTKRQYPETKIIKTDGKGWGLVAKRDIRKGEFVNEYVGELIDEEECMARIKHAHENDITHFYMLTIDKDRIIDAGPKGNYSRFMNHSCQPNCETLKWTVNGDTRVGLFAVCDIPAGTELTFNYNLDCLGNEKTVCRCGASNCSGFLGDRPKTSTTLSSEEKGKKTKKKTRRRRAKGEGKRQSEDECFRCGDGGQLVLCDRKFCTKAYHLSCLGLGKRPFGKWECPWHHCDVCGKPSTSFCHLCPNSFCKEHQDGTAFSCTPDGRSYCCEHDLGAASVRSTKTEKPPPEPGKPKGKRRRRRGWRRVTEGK
The test is classed as biochemical.

The next test concerns HeLa. As to the kind of experiment: viability loss in HeLa cells – cell-based, ATP luminescence, cherry-pick samples, cytotoxicity control, dose response (AID 687004). The test is classed as functional. The conditions noted are these: Homo sapiens.
The test system of the next test is HEK293. As to the kind of experiment: viability loss in HEK293T cells – cell-based, ATP luminescence, cherry-pick samples, cytotoxicity control, dose response (AID 687005).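 Also: cells exposed to compound for 48 hours.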 The test is classed as functional. The conditions noted are these: Homo sapiens.
The nature of test [11]: HEK293 Cytotoxicity Assay Measured in Cell-Based System Using Plate Reader - 7071-01_Inhibitor_Dose_CherryPick_Activity_Set2. It is filed as functional.
Test [12] can be described thus: cells. The test is classed as functional, cell-based. This is another data set of the same source.
The target of test [13] is T5, Trace amine-associated receptor 1 (Homo sapiens, UniProt Q96RJ0). Briefly: Fluorescence-based cell-based high throughput dose response assay to identify agonists of the human trace amine associated receptor 1 (TAAR1). The test is classed as functional.
T5 sequence (Q96RJ0 whole entry): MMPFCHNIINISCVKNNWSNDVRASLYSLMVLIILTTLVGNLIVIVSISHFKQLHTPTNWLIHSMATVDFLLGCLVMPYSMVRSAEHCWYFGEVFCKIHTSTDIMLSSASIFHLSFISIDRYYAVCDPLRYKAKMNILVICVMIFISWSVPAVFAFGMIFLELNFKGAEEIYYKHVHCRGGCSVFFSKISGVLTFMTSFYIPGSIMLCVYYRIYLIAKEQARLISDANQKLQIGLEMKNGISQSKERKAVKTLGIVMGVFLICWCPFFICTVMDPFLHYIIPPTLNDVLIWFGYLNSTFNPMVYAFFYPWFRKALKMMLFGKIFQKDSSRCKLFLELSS
The target in test [14] is T5, Trace amine-associated receptor 1. Briefly: Counterscreen for agonists of the human trace amine associated receptor 1 (hTAAR1): Fluorescence-based cell-based high throughput dose response assay to identify hTAAR1 agonist that also desensitize TAAR1 receptor response. The test is classed as functional.
Test [15] in a line: cells. The test is classed as functional, cell-based. The source holds these as a separate data set.
Another test addresses Protein Wnt-3a (Mus musculus, UniProt P27467). As to the kind of experiment: SAR analysis of small molecule antagonists of Gli-SUFU in a Wnt3a luminescent reporter assay. The test is classed as functional.

Activity calls are given as the source filed them. Some results are limits rather than exact numbers.

Sequence of Protein Wnt-3a (P27467 whole entry): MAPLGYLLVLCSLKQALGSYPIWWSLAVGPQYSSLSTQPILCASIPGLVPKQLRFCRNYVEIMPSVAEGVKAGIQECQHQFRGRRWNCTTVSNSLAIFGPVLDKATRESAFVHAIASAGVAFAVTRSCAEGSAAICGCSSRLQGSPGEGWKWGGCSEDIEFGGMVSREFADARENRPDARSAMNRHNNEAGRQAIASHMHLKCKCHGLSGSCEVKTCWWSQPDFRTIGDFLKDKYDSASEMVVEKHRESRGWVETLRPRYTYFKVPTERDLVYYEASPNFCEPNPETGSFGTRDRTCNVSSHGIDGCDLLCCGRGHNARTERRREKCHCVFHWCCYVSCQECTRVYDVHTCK

On to `CCc1c(-c2nnc(S)n2Cc2ccccc2)csc1C`, for which the IC50 in [1] was > 122 µM (inactive).
With `Cc1ccc2nc(-c3ccc(O)c(O)c3)cn2c1`, the EC50 is > 75 µM (not active) in [2], > 350 µM (not active) in “cells [3]”, 9.7 µM (active) in [4] and 5.03 µM (active) in the test “cells [5]”. The concentration at half-maximal activity (AC50) in test [6] is 0.885 µM (active); in test [7] it was 4.2 µM (active); in test [8] it was > 70 µM (inactive); in test [9], 2.47 µM (active); at Caspase-6 it was 12 µM (active); in test [10], > 20 µM (inactive). Besides, the IC50 at Albumin was > 94.1 µM (inactive).
With `C[C@H]1CCCCO[C@H](CN(C)C(=O)Nc2ccc(F)cc2)[C@@H](C)CN([C@@H](C)CO)C(=O)c2cc(NS(=O)(=O)c3ccc(Cl)cc3)ccc2O1`, the values for the half-maximal activity concentration (AC50) (in the test with HeLa; in the test with HEK293; in [11]) were 25.5 µM (active), 30.6 µM (active) and 30.6 µM (active), respectively.
For the molecule `O=C(CCCCl)N1CCc2[nH]c3ccccc3c2C1`, the IC50 was > 29.9 µM (inactive) in the test “cells [12]” and 2.05 µM (active) in test [14]. Further, the EC50 was 0.492 µM (active) in test [13] and > 29.9 µM (inactive) in the test “cells [15]”.
In the case of `CCCCNc1cc(NC(=O)c2ccccc2)ncn1`, on Protein Wnt-3a, the IC50 was > 21.8 µM (inactive).

For orientation: IC50 means the concentration that gives 50% inhibition. A word on the EC50: it is the midpoint of the concentration-response curve. A word on the AC50: it is the concentration giving half of the maximal activity seen.
